Experimental findings from patent US20260125359A1, “HETEROARYL COMPOUNDS AS MULTI-TARGET PROTEIN KINASE INHIBITORS” (FUJIAN HAIXI PHARMACEUTICALS CO., LTD., priority 2023, published 2026) are described below.

SMILES strings stand for the structures.

This assay has as its system M-NFS-60 cells. The assay is described as follows: M-NFS-60 cell in vitro assay (CCK, 48 h, M-CSF factor medium). It is filed as cell-based. The conditions noted are these: M-NFS-60 cells; read-out: M-NFS-60cellassay IC50. As to the method: To determine the inhibitory activity of compounds on M-NFS-60 cells.
• M-NFS-60 cell line (ATCC, Cat. No.: CRL-1838) • RPMI-1640 medium (Gibco, domestic subpackage, Cat. No.: C11875500BT) • Recombinant Mouse CSF1/M-CSF (Sino Biological Inc., Cat. No.: 51112-MNAH) • PAN/Serum (BioTECH, Cat. No.: P30-2602) • Trypsin/0.05% Trypsin-EDTA (Gibco, Cat. No.: 25300-062) • 0.4% Trypan Blue (Sigma, Cat. No.: T8154-20 ml) • Penicillin-Streptomycin (Hyclone, Cat. No.: SV30010) • DMSO (Solarbio, Cat. No.: D8371) • PBS (Solarbio, Cat. No.: P1020) • CCK (AbMole BioScience, Cat. No.: M4839-500Tests)
• 1) M-CSF factor stock solution: take 10 μg of powdered m-CSF factor, add 0.4 ml of saline, formulate 25 ug/ml and store at −80° C. • 2) M-CSF factor (25 ng/ml) medium: • 1640 (Gibco)+10% PAN+100×Penicillin-Streptomycin+100×M-CSF stock solution • 3) Complete medium: • 1640 (Gibco)+10% PAN+100×Penicillin-Streptomycin • 4) Compound preparation: 2-3 mg of the compound was added to DMSO to formulate a 30 mM stock solution, −80° C. refrigerator storage
• 1) Cell resuscitation: the frozen cells in the cryovial were thawed rapidly by shaking in a 37° C. water bath, then 4 mL of medium was added. After mixing evenly, they were centrifuged at 125×g for 5 min, and the supernatant was discarded. The cells were resuspended and transferred to the culture flasks, and were cultured in a 5% CO2 fully saturated humidity incubator. • 2) Cell passaging: M-NFS-60 cells are semi-suspension cells, which were collected directly in a 15 mL centrifuge tube, centrifuged at 125×g for 5 min. and the supernatant was discarded. The cells were resuspended and passaged into new culture flasks at a ratio of 1:5 to 1:10. • 3) After the newly resuscitated cells were passaged 1-2 times for cell stabilization, compound inhibition assays were started when the cells were in the logarithmic growth phase. • (a) Cell collection and counting: the same as the cell passaging step, centrifuge in two tubes, one tube with M-CSF factor medium to resuspend the cells, the other tube with complete medium to resuspend the cells. Take 10 μL of cell suspension in each tube, and count the cells by Tepan blue staining. • (b) Dilute the cell solution according to the concentration of inoculated cells respectively, the concentration of M-NFS-60 cells inoculated with factor was 5.56×10^4 cells/mL, and the concentration of inoculated without factor was 5×10^4 cells/mL. • (c) Seed plate: 384 well plate inoculated with M-NFS-60 cells, 36 uL/well, triplicate wells, the number of inoculated cells was equivalent to 2000 cells/well, set with blank control, factor free negative control, normal control, DMSO control and experimental wells. The cells were placed in a 5% CO2 fully saturated humidity incubator for 4 h. • (d) Sampling compounds: 96 well plates were used for compound preparation. The compound solution prepared in advance was diluted to corresponding gradient concentration with DMSO. An appropriate amount of the diluted solution in the previous step was added to an equal volume of factor containing medium. The 96 well plates were centrifuged at 1000 rpm for 5 min, which played the role of defoaming and spinning down droplets and condensation. Remove the 384 well plate from the incubator, add the diluted compound solution into each well sequentially, 4 μL/well; DMSO wells and normal wells were added with corresponding factor containing medium, 4 μL/well. Then it was put into CO2 incubator for 48 h. • (e) After incubation for 48 h, CCK was added to each well, 4 uL, and the plates were placed in the incubator for another 2 h, and then the OD (optical density) value at 450 nm was measured by microplate reader.
The IC50 values for each test compound were fitted using professional graphing and analysis software.
A word on the IC50: it is the concentration needed to halve the response being measured. Regarding `CN(C)Cc1cccc(NC(=O)c2cccc3c2CC[C@@H]3Nc2cncc(-c3cnn(C)c3)c2)c1` [Compound 14az], the half-maximal inhibitory concentration (IC50) lay in the range of 50 to 200 nM.
Take `Cc1ccc(F)c(NC(=O)c2cccc3c2CC[C@@H]3Oc2cnc3cn(C)nc3c2)c1` [Compound 76ax]: the half-inhibitory concentration (IC50) was < 50 nM.
Then `Cn1cc(-c2cncc(N[C@H]3CCc4c(C(=O)Nc5cccc(C6CC6)c5)cc(F)cc43)c2)cn1` [Compound 51b], with < 50 nM; and `Cn1cc2ncc(N[C@H]3CCc4c(Nc5cc(C6(C(F)(F)F)CCC6)on5)cccc43)cc2n1` [Compound 91n], with < 50 nM; and `CN(C)Cc1ccc(NC(=O)c2cccc3c2CC[C@@H]3N(C)c2cncc(-c3cnn(C)c3)c2)cc1` [Compound 22f], with > 500 nM.
Regarding `Cc1cc(NC(=O)c2cccc3c2CC[C@@H]3Oc2cnc3cnn(C)c3c2)ccc1F` [Compound 76am], the IC50 was < 50 nM.
The value for `Cc1cccc(C(=O)Nc2cccc3c2CC(F)C3Nc2cncc(-c3cnn(C)c3)c2)c1` (centres unmarked) [Compound 44c] was 50 to 200 nM; that for `Cc1cncc(CNc2cccc3c2CC[C@@H]3Nc2cncc(-c3cnn(C)c3)n2)c1` [Compound 60e] was > 500 nM; that for `CN(c1cncc(-c2cnn(C)c2)c1)[C@H]1CCc2c(C(=O)Nc3cccc(C(F)(F)F)c3)cccc21` [Compound 22b] was < 50 nM.
Take `Cn1cc(-c2cncc(N[C@H]3CCc4c(C(=O)Nc5cccc(CN6CCCC6)c5)cccc43)c2)cn1` [Compound 14av]: the IC50 was in the range of 50 to 200 nM.
Then `Cc1cccc(C(=O)Nc2c(F)ccc3c2CC[C@@H]3Nc2cncc(-c3cnn(C)c3)c2)c1` (stereo in doubt) [Compound 43, N-(5-fluoro-1-((5-(1-methyl-1H-pyrazol-4-yl)pyridin-3-yl)amino)-2,3-dihydro-1H-inden-4-yl)-3-methylbenzamide], with 200 to 500 nM; and `Cn1ncc2ncc(O[C@H]3CCc4c(C(=O)Nc5ccc(F)c(Cl)c5)cccc43)cc21` [Compound 76an], with < 50 nM; and `Cn1cc2ncc(N[C@H]3CCc4c(Nc5noc(C6(CO)CC6)n5)cccc43)cc2n1` [Compound 93e], with 50 to 200 nM.
Consider `CC(C)c1cc(Nc2cccc3c2CC[C@@H]3Nc2cnc3cnn(C)c3c2)no1` [Compound 91e], for which the half-inhibitory concentration (IC50) was < 50 nM.
As to `CN(C)Cc1ccc(NC(=O)c2cccc3c2CC[C@@H]3N(C)c2cnc3cnn(C)c3c2)cc1` [Compound 80g], the half-inhibitory concentration (IC50) lay within 200 to 500 nM.
Take `CN(c1cncc(-c2cnn(C)c2)c1)[C@H]1CCc2c(C(=O)Nc3ccc(C(F)(F)F)cc3)cccc21` [Compound 20, (S)-1-(methyl (5-(1-methyl-1H-pyrazol-4-yl)pyridin-3-yl)amino)-N-(4-(trifluoromethyl)phenyl)-2,3-dihydro-1H-indene-4-carboxamide]: the IC50 was < 50 nM.
Then `CN(C)Cc1ccc(NC(=O)c2cccc3c2CC[C@@H]3Oc2cncc(-c3cnn(C)c3)c2)cc1` [Compound 19c], with 50 to 200 nM.
Then `Cn1cc(-c2cncc(N[C@H]3CCc4c(NC(=O)NC5CCC(F)(F)CC5)cccc43)n2)cn1` [Compound 65b], with 50 to 200 nM; and `CN(c1cncc(-c2cnn(C)c2)c1)[C@H]1CCc2c(NC(=O)c3ccc(C(F)(F)F)cc3)cccc21` [Compound 23, (S)—N-(1-(methyl (5-(1-methyl-1H-pyrazol-4-yl)pyridin-3-yl)amino)-2,3-dihydro-1H-inden-4-yl)-4-(trifluoromethyl)benzamide], with > 500 nM.
The value for `CC(C)c1cnc(Nc2cccc3c2CC[C@@H]3Nc2cncc(-c3cnn(C)c3)n2)s1` [Compound 37, (S)—N^4-(5-isopropylthiazol-2-yl)-N^1-(6-(1-methyl-1H-pyrazol-4-yl)pyrazin-2-yl)-2,3-dihydro-1H-indene-1,4-diamine] was 50 to 200 nM; that for `Cn1cc2ncc(N[C@H]3CCc4c(Nc5noc(C6(C)COC6)n5)cccc43)cc2n1` [Compound 92, (S)—N^1-(2-methyl-2H-pyrazolo[4,3-b]pyridin-6-yl)-N^4-(5-(3-methyloxetan-3-7)-1,2,4-oxadiazol-3-yl)-2,3-dihydro-1H-indene-1,4-d] was > 500 nM.
Take `Cn1cc(-c2cnc(N)c(O[C@H]3CCc4c(NC(=O)c5cccc(CN6CCCCC6)c5)cccc43)c2)cn1` [Compound 3h]: the half-maximal inhibitory concentration (IC50) is > 500 nM.
The value for `Cc1cccc(NC(=O)c2cccc3c2CC[C@@H]3Nc2cnc3cn(C)nc3c2)c1F` [Compound 74i] was < 50 nM; that for `CN(c1cnc2cn(C)nc2c1)[C@H]1CCc2c(C(=O)Nc3cccc(C4CC4)c3)cccc21` [Compound 80b] was < 50 nM; that for `Cn1cc(-c2cnc(N)c(O[C@H]3CCc4c(C(=O)Nc5cccc(CN6CCCCC6)c5)cccc43)c2)cn1` [Compound 5b] was 50 to 200 nM.
Then `Cc1cc(NC(=O)c2cccc3c2CC[C@@H]3Oc2cnc3cn(C)nc3c2)ccc1F` [Compound 76ar], with < 50 nM.
For `Cc1c(Nc2cccc3c2CC[C@@H]3Nc2cncc(-c3cnn(C)c3)c2)noc1C(C)(C)C` [Compound 40, (S)—N^4-(5-(tert-butyl)-4-methylisoxazol-3-yl)-N^1-(5-(1-methyl-1H-pyrazol-4-yl)pyridin-3-yl)-2,3-dihydro-18-indene-1,4-diamine], the IC50 is < 50 nM.
Take `Cn1cc(-c2cnc(N)c(O[C@H]3CCc4c(NC(=O)c5ccc6c(c5)OC(F)(F)O6)cccc43)c2)cn1` [Compound 3c]: the half-inhibitory concentration (IC50) is 50 to 200 nM.
The value for `Cn1ncc2ncc(O[C@H]3CCc4c(NC(=O)c5cccc(C6CC6)c5)ccc(F)c43)cc21` [Compound 78a] was < 50 nM.
Take `COc1cc(C(=O)Nc2cccc3c2C(=O)CC3Nc2cncc(-c3cnn(C)c3)c2)ccc1F` (centres unmarked) [Compound 69, 4-fluoro-3-methoxy-N-(1-((5-(1-methyl-1H-pyrazol-4-yl)pyridin-3-yl)amino)-3-oxo-2,3-dihydro-1H-inden-4-yl)benzamide]: the IC50 was > 500 nM.
As to `Cn1cc(-c2cncc(N[C@H]3CCc4c(C(=O)Nc5cncc(C(F)(F)F)c5)cccc43)c2)cn1` [Compound 14ak], the half-inhibitory concentration (IC50) was < 50 nM.
On to `Cn1cc2ncc(O[C@H]3CCc4c(C(=O)Nc5ccccc5F)cccc43)cc2n1` [Compound 76au], for which the IC50 was < 50 nM.
The value for `Cn1cc2cc(N[C@H]3CCc4c(C(=O)Nc5cccc(C6CC6)c5)cccc43)ccc2n1` [Compound 74d] was > 500 nM; that for `Cn1ncc2ncc(N[C@H]3CCc4c(Nc5cc(C(C)(C)CO)on5)cccc43)cc21` [Compound 91d] was < 50 nM; that for `Cn1cc(-c2cncc(N[C@H]3CCc4c(NCC5CCCCC5)cccc43)n2)cn1` [Compound 60b] was > 500 nM.
On to `CN1Cc2ccc(NC(=O)c3cccc4c3CC[C@@H]4Oc3cncc(-c4cnn(C)c4)c3)cc2C1` [Compound 19v], for which the IC50 was 200 to 500 nM.
In the case of `Cn1cc(-c2cncc(N[C@H]3CCc4c(C(=O)OC5CCCCC5)cccc43)n2)cn1` [Compound 62, cyclohexyl(S)-1-((6-(1-methyl-1H-pyrazol-4-yl)pyrazin-2-yl)amino)-2,3-dihydro-1H-indene-4-carboxylate], the IC50 is > 500 nM.
The value for `CN1CCc2cc(NC(=O)c3cccc4c3CC[C@@H]4Oc3cncc(-c4cnn(C)c4)c3)ccc2C1` [Compound 19i] was 50 to 200 nM; that for `Cn1cc(-c2cncc(N[C@H]3CCc4c(Nc5nnc(C(C)(C)C)o5)cccc43)c2)cn1` [Compound 42l] was > 500 nM.
Consider `CN(C)Cc1cc(NC(=O)c2cccc3c2CC[C@@H]3N(C)c2cnc3cnn(C)c3c2)ccc1F` [Compound 80f], for which the half-inhibitory concentration (IC50) was in the range of 50 to 200 nM.
Take `Cn1cc(-c2cncc(N[C@H]3CCc4c(C(=O)Nc5cccc(CN6CCCCC6)c5)cccc43)c2)cn1` [Compound 14at]: the IC50 fell in the range of 50 to 200 nM.
